# Test results from patent US11452781B2, “Method of preventing and treating type 1 diabetes, allograft rejection and lung fibrosis (by targeting the ATP/P2X7R axis)” (CHILDREN'S MEDICAL CENTER CORPORATION, priority 2013, dated 2022).
# “Also recorded” adds a separate entry of the source.
# Experiments:
# [1] = system: splenocytes of cardiac-transplanted mice; experiment: Immune profiling of cardiac-transplanted mice (ELISPOT with BALB/c irradiated splenocytes, flow cytometry); assay type: in vivo, mouse
# Protocol: To evaluate the effect of P2X7R targeting on the immune system of cardiac-transplanted mice, splenocytes were harvested at days 7 and 100 post-transplantation and were challenged with BALB/c irradiated splenocytes in an ELISPOT assay.
# The effect of P2X7R targeting in preventing cardiac transplant rejection was tested by using the P2X7R inhibitor oATP. Untreated C57BL/6 mice transplanted with BALB/c hearts (fully mismatched) invariably rejected grafts within 7 days (mean survival time of 7 days). P2X7R targeting with the use of the short-term treatment of oATP ([…] oATP intraperitoneally daily for 14 days) induced long-term cardiac transplant survival (>100 days) in 80% of recipients. To evaluate the effect of P2X7R targeting on the immune system of cardiac-transplanted mice, splenocytes were harvested at days 7 and 100 posttransplantation and were challenged with BALB/c irradiated splenocytes in an enzyme-linked immunosorbent spot (ELISPOT) assay. […] The percentages of CD4+ Teffs and CD8+ Teffs were reduced by in vivo short-term P2X7R targeting in mice at days 7 and 100 posttransplantation in comparison with untreated mice.
# mice adoptively transferred with naïve C57BL/6 splenocytes, and no protection was observed when splenocytes obtained from mice with long-term graft function were coadoptively transferred with naïve splenocytes. Conversely, prolonged graft survival >50 days was observed when splenocytes obtained from cardiac-transplanted mice with long-term graft function were adoptively transferred. […] The immunocompetence of treated mice at day 100 after transplantation was tested.
# [2] = system: splenocytes of islet-transplanted mice; experiment: Immune profiling of islet-transplanted mice (ELISPOT, flow cytometry, serum cytokines); assay type: in vivo, mouse; conditions: day 14
# Protocol: The effect of oATP treatment on the immune system of transplanted mice was tested. Splenocytes were collected in untreated or oATP-treated mice at day 14 after transplantation and challenged ex vivo in an ELISPOT assay with BALB/c irradiated splenocytes.
# Immune profiling of islet-transplanted oATP-treated and untreated mice was performed at day 14 after transplantation.
# naïve CD4+ T-cells = experiment: ELISPOT, naïve CD4+ T cells stimulated with anti-CD3-Ig and anti-CD28-Ig; assay type: cell-based, mouse
# Protocol: The effect of P2X7R targeting was tested by treatment with oATP during T-cell activation. […] Similarly, in a T-cell proliferation assay, CFSE-labeled naïve CD4^+ T-cells were stimulated for 4 days with 0.5 μg/ml anti-CD3-Ig and anti-CD28-Ig; treatment with 100 μM oATP diminished CD4^+ T-cell proliferation (FIG. 5B, right panel) compared to controls (FIG. 5B, left panel).
# To address the mechanisms underlying P2X7R targeting mediated inhibition of cardiac transplant rejection, the inventors analyzed the effect of P2X7R targeting on T-cell activation and Th1/Th17 differentiation in vitro. […] The effect of in vitro P2X7R targeting with oATP during CD4+ T-cell activation was tested. […] Second, in a T-cell proliferation assay, carboxyfluorescein diacetate succinimidyl ester-labeled naïve CD4+ T cells were stimulated for 96 hours with 0.5 μg/mL anti-CD3-Ig and anti-CD28-Ig, and treatment with 100 μM oATP diminished CD4+ T cell proliferation in comparison with controls. […] The inventors next tested the effect of in vitro P2X7R targeting during a Th1/Th17 generation and differentiation assay. […] P2X7R targeting with oATP inhibited Th0 conversion into both Th1 and Th17, as assessed by the percentage of IFN-γ+ and IL-17+ cells, respectively. The inventors show, therefore, that P2X7R targeting through oATP suppresses activation, proliferation, and Th1/Th17 differentiation of CD4+ T cells. The inventors then further investigated the role of P2X7R on T-cell activation and Th1/Th17 differentiation by genetic upregulation of P2X7R. P2X7R cDNA was transduced by using a pMY-IRES-GFP retroviral vector into CD4+ T cells (pmY-P2X7R CD4+ T cells), and upregulation of P2X7R expression was confirmed by Western blot. pmY-P2X7R CD4+ T cells were then challenged with anti-CD3-Ig/anti-CD28-Ig stimulation in an ELISPOT assay. […] In a Th1/Th17 generation assay, pmY-P2X7R CD4+ T cells seemed to display increased differentiation capacity in comparison with pmY-mock CD4+ T cells, as assessed by T-bet and ROR-γ expression.
# Several key components of T-cell receptor signaling involved in the alloimmune response were examined, and the phosphorylation kinetics following in vitro anti-CD3-Ig/anti-CD28-Ig-mediated CD4+ T-cell activation was evaluated by using the Luminex assay. […] The inventors first confirmed that Colivelin (Col) was able to restore the activation-induced phosphorylation of STAT3 in a dose-dependent manner in oATP-treated CD4+ T cells by Western blotting. […] The effect of oATP and Colivelin on STAT3 phosphorylation and T-cell function was also evaluated following cardiac transplantation.
# NOD mice = experiment: Diabetes onset in NOD mice (prevention); assay type: in vivo, mouse
# Protocol: Untreated NOD mice invariably developed diabetes by 15-20 weeks of age (FIGS. 5A-5E). […] Rapamycin (0.1 mg/kg for 10 days) treatment was again synergistic with oATP treatment, inducing a further delay in the onset of diabetes (FIG. 7) with 70% of mice protected from diabetes at 25 weeks, while rapamycin treatment alone was ineffective in delaying diabetes in NOD mice (FIG. 7). This group of experiments confirmed that the ATP/P2X7R axis is indeed relevant to allo- and autoimmune responses in vivo and that P2X7R targeting can be viewed as a novel strategy to curb both responses.
# Consequently, NOD mice were treated with oATP.
# [3] = system: C57BL/6 mice transplanted with bm12 hearts; experiment: Chronic cardiac transplant rejection, bm12 donors to C57BL/6 recipients; assay type: in vivo, mouse
# Protocol: To evaluate the importance of P2X7R signaling and targeting in a clinically relevant setting, the effect of oATP treatment in a model of cardiac transplant chronic rejection (bm12 donors to C57BL/6 recipients) was tested. […] Cardiac allograft pathology was assessed 40 days after transplantation of bm12 hearts into C57BL/6 mice.
substance,measurement,setting,value
periodate-oxidized ATP [oATP],percentage of Tregs,[1]; day 7,No differences
same,percentage of Tregs,[1]; day 100,an increase
same,percentages of CD4+ Teffs and CD8+ Teffs,[1]; days 7 and 100 vs untreated,reduced
same,IFN-γ-producing cells after ovalbumin immunization (immunocompetence),[1]; oATP-treated mice at day 100 vs naïve mice,no differences
same,number of IL-4-producing cells (ELISPOT),"[1]; oATP-treated vs untreated, day 7",increased
same,number of IFN-γ-producing cells (ELISPOT),"[1]; oATP-treated vs untreated, day 7 (and day 100)",Reduced; also recorded: fewer
same,percentage of Th17 cells (CD4+IL17+),"[1]; vs untreated, days 7 and 100",similarly reduced; also recorded: fewer
same,Th17 cells,[2],reduced; also recorded: Slight reductions
same,number of cells producing IL-4,[2],no effect
same,percentages of CD8+ T effector cells,[2],Slight reductions
same,percentages of peripheral CD4+ T effector cells,[2],No significant changes
same,percentages of regulatory T-cells,[2],No differences
same,serum IL-6,[2],reduced
same,number of IFN-γ-producing CD4+ T-cells,"naïve CD4+ T-cells; 100 μM oATP, 24 hours",significantly reduced; also recorded: suppressed
same,expression levels of the P2XsR,naïve CD4+ T-cells; oATP present during stimulation,not influenced
same,delay of diabetes onset,"NOD mice; 4-week-old NOD mice, daily i.p. for 30 days (early prevention)",delays diabetes onset
same,delay of diabetes onset,NOD mice; 10-week-old NOD mice (late prevention),delay
same,mice protected from diabetes at 25 weeks of age,"NOD mice; 10-week-old NOD mice, oATP 250 μg i.p. daily 14 days, Rapamycin 0.1 mg/kg 10 days",50%
same,"cardiac allograft pathology (infiltration, coronaropathy)",[3]; 40 days after transplantation,only mild cellular infiltration and the absence of coronaropathy
same,IFN-γ-producing cells (ELISPOT),"[3]; mouse, in vivo",reduced number
same,IL-4-producing cells (ELISPOT),"[3]; mouse, in vivo",increased number
